Test results taken from publication PMC12440775 (Frontiers in Pharmacology, 2025).
Read-outs that look alike come from different tables or passages of the source.

How the values were obtained:
[1] = Single ascending dose plasma pharmacokinetics (Part 1); format: in vivo, human; conditions: for half-life / AUC(0-inf) / Cmax / Tmax / AUC(0-t) / Vd/F: male, human, plasma; for Vd/F: read-out: Vz/F
Procedure: One dose level was tested within each group. Subject groups were dosed and evaluated sequentially, beginning with the lowest-dose group and proceeding stepwise to the highest-dose group.
Blood samples were taken pre-dose (0) and at prespecified time points after dosing (Figure 1). At each time point, approximately 4.9 mL of blood was drawn into evacuated collection tubes, containing ethylene diamine tetraacetate (EDTA) anticoagulant and labeled with sample identification information. The EDTA-anticoagulated blood samples were immediately placed on ice and centrifuged at 4 °C and approximately 2000–4,000 g for approximately 10 min in a refrigerated centrifuge as soon as possible after collection. The harvested plasma was split into two aliquots, immediately placed in appropriately labeled tubes, and stored at −20 °C or below until shipment.
(§1) Standard formulas for non-compartmental pharmacokinetic analysis provided by WinNonlin were used in determination of the maximum concentration (Cmax), time to maximum concentration (tmax), oral clearance (CL/F), mean residence time (MRTpo), and apparent volume distribution in terminal phase (Vz/F). The area under the plasma concentration–time curve (AUC) was calculated using a linear up/log down trapezoidal algorithm. The predicted concentration at the last time-point with quantifiable concentration was used for extrapolation of AUC. The fraction excreted as unchanged drug in urine (fe) was calculated as the percentage of the amount of drug excreted in urine as unchanged drug (Aet1–t2) compared to the administered dose ([Huang et al., 2008b]).
The power model was used for the analysis of dose proportionality in terms of AUC0– ∞ and Cmax. The model is described using the following equation: Ykm = α•Dk ^β •ekm. […] Dose linearity requires that β equals 1. […] Statistical analysis was performed using the SAS® program system (version 8.2, Cary, NC) ([Huang et al., 2008b]).

[2] = Urinary excretion of unchanged FDV after single ascending dose (Part 1); format: in vivo, human; conditions: gMean (gCV%)
Procedure: (§2) Six volunteers received the active drug at each dose level dissolved in a polyethylene glycol (PEG)/tromethamine (TRIS)/meglumine solution, and two received a placebo. One dose level was tested within each group. Subject groups were dosed and evaluated sequentially, beginning with the lowest-dose group and proceeding stepwise to the highest-dose group. The next higher dose was administered only if no safety concerns arose during treatment of the preceding group.
A blank urine sample was collected prior to drug administration, and two 10-mL aliquots were retained to be checked for analytical interference. All urine voided during the sampling intervals 0–4, 4–12, 12–24, and 24–48 h after administration was collected in containers (Figure 1). Subjects were asked to completely void their bladder at the end of each collection interval. The urine volume for each collection interval was documented. Two aliquots of approximately 5 mL were taken and frozen at −20 °C or below and stored for bioanalytical measurement. Until shipped on dry ice to the analytical laboratory, the urine samples were stored at −20 °C or below at the clinical site and stored in the analytical laboratory at −20 °C or below until analysis.
as §1

[3] = Safety and tolerability, food effect part (Part 2); format: in vivo, human
Procedure: as §2
Safety was assessed throughout the study by monitoring changes in clinical laboratory parameters (e.g., serum biochemistry, hematology, and urinalysis), 12-lead electrocardiograms, or vital signs (blood pressure, pulse rate, and temperature measurements); monitoring for occurrence of AEs); and carrying out physical examinations.

[4] = design: method as in Duan et al., 2012; conditions: rats; ref Duan et al., 2012; cited from earlier work
human Hepato Pac model = test system: human Hepato Pac model; design: method as in Ramsden et al., 2014b; conditions: ref Ramsden et al., 2014b; cited from earlier work
[5] = HCV-infected patients, ref Huang et al., cited from earlier work

C=C[C@@H]1C[C@]1(NC(=O)[C@@H]1C[C@@H](Oc2cc(-c3csc(NC(=O)C(C)C)n3)nc3c(Br)c(OC)ccc23)CN1C(=O)[C@@H](NC(=O)OC1CCCC1)C(C)(C)C)C(=O)O [FDV, Faldaprevir]
Inter-subject variability, gCV of AUC0–∞ ([1]; higher-dose groups): 60–80%
half-life ([1]; oral, range over single doses of 4–1,200 mg, read-out: gMean t1/2): 15.5 to 39.2 h
AUC(0-inf) ([1]; oral, range over single doses of 4–1,200 mg, read-out: geometric mean (gMean) AUC0-inf): 254 to 402000 ng·h/mL
Cmax ([1]; oral, range over single doses of 4–1,200 mg, read-out: geometric mean (gMean) Cmax): 3.57 to 16500 ng/mL
Tmax ([1]; oral, range over single doses of 4–1,200 mg, read-out: median tmax): 4 to 14 h
AUC(0-t) ([1]; po, 4 mg): 201 ng·h/mL
half-life ([1]; po, 4 mg, FDV 4 mg single oral dose, fasted, gMean (gCV%), read-out: t½ (converted)): ~39 h
AUC(0-inf) ([1]; po, 4 mg, read-out: AUC0–∞): 254 ng·h/mL
Cmax ([1]; po, 4 mg, read-out: Cmax): 3.6 ng/mL
Vd/F ([1]; po, 4 mg): 868 L
Tmax ([1]; po, 4 mg, read-out: tmax): 14 h
AUC(0-t) ([1]; po, 16 mg): 1030 ng·h/mL
half-life ([1]; po, 16 mg, FDV 16 mg single oral dose, fasted, gMean (gCV%), read-out: t½ (converted)): 31.8 h
Cmax ([1]; po, 16 mg, read-out: Cmax): 22.8 ng/mL
Vd/F ([1]; po, 16 mg): 600 L
Tmax ([1]; po, 16 mg, read-out: tmax): 8 h
AUC(0-t) ([1]; po, 48 mg): 3280 ng·h/mL
half-life ([1]; po, 48 mg, FDV 48 mg single oral dose, fasted, gMean (gCV%), read-out: t½ (converted)): 37.7 h
AUC(0-inf) ([1]; po, 48 mg, read-out: AUC0–∞): 3980 ng·h/mL
Cmax ([1]; po, 48 mg, read-out: Cmax): 86.6 ng/mL
Vd/F ([1]; po, 48 mg): 640 L
Tmax ([1]; po, 48 mg, read-out: tmax): 8 h
AUC(0-t) ([1]; po, 120 mg): 9660 ng·h/mL
half-life ([1]; po, 120 mg, FDV 120 mg single oral dose, fasted, gMean (gCV%), read-out: t½ (converted)): 27.4 h
AUC(0-inf) ([1]; po, 120 mg, read-out: AUC0–∞): 10700 ng·h/mL
Cmax ([1]; po, 120 mg, read-out: Cmax): 344 ng/mL
Vd/F ([1]; po, 120 mg): 435 L
Tmax ([1]; po, 120 mg, read-out: tmax): 7 h
AUC(0-t) ([1]; po, 240 mg): 36100 ng·h/mL
half-life ([1]; po, 240 mg, FDV 240 mg single oral dose, fasted, gMean (gCV%), read-out: t½ (converted)): 22.2 h
AUC(0-inf) ([1]; po, 240 mg, read-out: AUC0–∞): 37400 ng·h/mL
Cmax ([1]; po, 240 mg, read-out: Cmax): 2070 ng/mL
Vd/F ([1]; po, 240 mg): 200 L
Tmax ([1]; po, 240 mg, read-out: tmax): 4 h
AUC(0-t) ([1]; po, 480 mg): 74100 ng·h/mL
half-life ([1]; po, 480 mg, FDV 480 mg single oral dose, fasted, gMean (gCV%), read-out: t½ (converted)): 33.3 h
AUC(0-inf) ([1]; po, 480 mg, read-out: AUC0–∞): 80700 ng·h/mL
Cmax ([1]; po, 480 mg, read-out: Cmax): 4300 ng/mL
Vd/F ([1]; po, 480 mg): 278 L
Tmax ([1]; po, 480 mg, read-out: tmax): 4 h
AUC(0-t) ([1]; po, 800 mg): 127000 ng·h/mL
half-life ([1]; po, 800 mg, FDV 800 mg single oral dose, fasted, gMean (gCV%), read-out: t½ (converted)): ~16 h
AUC(0-inf) ([1]; po, 800 mg, read-out: AUC0–∞): 128000 ng·h/mL
Cmax ([1]; po, 800 mg, read-out: Cmax): 6630 ng/mL
Vd/F ([1]; po, 800 mg): 141 L
Tmax ([1]; po, 800 mg, read-out: tmax): 9 h
AUC(0-t) ([1]; po, 1200 mg): 397000 ng·h/mL
half-life ([1]; po, 1200 mg, FDV 1,200 mg single oral dose, fasted, gMean (gCV%), read-out: t½ (converted)): ~16 h
AUC(0-inf) ([1]; po, 1200 mg, read-out: AUC0–∞): 402000 ng·h/mL
Cmax ([1]; po, 1200 mg, read-out: Cmax): 16500 ng/mL
Vd/F ([1]; po, 1200 mg): 65 L
Tmax ([1]; po, 1200 mg, read-out: tmax): 8 h
Inter-subject variability, gCV of AUC0–∞ ([1]; most of the lower-dose groups): approximately 30%
Fe0–48h (fraction excreted in urine) ([2]; FDV 48 mg single oral dose): 0.01 (165) %
Fe0–48h (fraction excreted in urine) ([2]; FDV 120 mg single oral dose): 0.02 (93) %
Fe0–48h (fraction excreted in urine) ([2]; FDV 240 mg single oral dose): 0.04 (68) %
Fe0–48h (fraction excreted in urine) ([2]; FDV 480 mg single oral dose): 0.04 (37) %
Fe0–48h (fraction excreted in urine) ([2]; FDV 800 mg single oral dose): 0.03 (110) %
Fe0–48h (fraction excreted in urine) ([2]; FDV 1,200 mg single oral dose): 0.03 (54) %
Subjects with increases in total bilirubin ([3]; 480 mg, Part 2): eight subjects
Diarrhea and nausea ([3]; Part 2, FDV 480 mg (n = 8)): three subjects
Headache ([3]; Part 2, FDV 480 mg (n = 8)): one subject
Vomiting ([3]; Part 2, FDV 480 mg (n = 8)): two subjects
Enrichment in the liver compared with plasma [4]: 42 fold
Predicted enrichment in the liver in humans (human Hepato Pac model): 22–32 fold
FDV exposure at 240 mg compared to the 120-mg dose, based on trough concentrations [5]; 2016: approximately 5 fold
FDV exposure at 240 mg compared to the 120-mg dose, based on AUC0–24,ss [5]; 2021: up to 7 fold
